Source: US20110104821A1, “ABeta-OLIGOMER MEASUREMENT METHOD” (priority 2008, published 2011)

Target: high molecular oligomer Aβ (Aβ1-42) (Homo sapiens, UniProt P05067)
Assay: Influence of test compound on Aβ oligomer formation, measured by BAN50a / HRP-labeled BAN50a ELISA
Format: biochemical
Details: Curcumin with various concentrations added to Aβ42 solutions; incubated at 4° C. for a whole day and night; ELISA of Example 1
Description: ELISA using BAN50a and HRP labeled BAN50a (quantification of oligomer Aβ) was performed by the following steps.
(1) BAN50a antibody was dissolved in coating buffer A to a concentration of 10 μg/ml (75 μl/well), added to an EIA96 well plate (high maximum binding clear plate, Greiner), and incubated in a refrigerating room (about 4° C.) for a whole day and night. (2) After washing 3 times with PBS (calcium, magnesium-free; hereinafter sometimes to be abbreviated as PBS(−)), blocking buffer B was added to 100 μL/well and the plate was stored. (3) On the day of experiment, blocking buffer B was discarded and the plate was washed twice with PBS(−), and 25 μl of buffer C was added. […] (5) The sample was incubated in a refrigerating room (about 4° C.) for a whole day and night. (6) The plate was washed 4 times with PBS(−). […] (11) Thereafter, 1 M phosphoric acid solution (75 μl/well) was added to the reacted substrate solution to terminate the reaction, and OD450 was measured by a multi-label counter (PerkinElmer). […]
(3) The tube was incubated at 4° C. for a whole day and night. (4) The reaction mixture was diluted 100-fold with buffer C (mentioned above), and measured by the aforementioned ELISA. (5) The inhibitory rate was calculated with that of the vehicle group as 100%. […]

Chain of high molecular oligomer Aβ (Aβ1-42) (P05067 672-713): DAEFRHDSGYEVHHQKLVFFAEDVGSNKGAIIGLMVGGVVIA

signal of oligomer Aβ (inhibition of formation of high molecular oligomer Aβ): specifically decreased
SMILES: COc1cc(/C=C/C(=O)CC(=O)/C=C/c2ccc(O)c(OC)c2)ccc1O [curcumin]
